# Measured values from paper PMC2847018 (Biochemical pharmacology, 2010).
# “Also recorded” adds a separate entry of the source. Where a name gives a salt, the structure may show the parent alone. Read-outs that look alike come from different tables or passages of the source.
# Key:
# [1] = system: placental carbonyl-reducing enzymes (human placental microsomes); type: biochemical; settings: bupropion 40 μM, pooled placental microsomes, 40 min 37°C; for effect on formation of threo- and erythrohydrobupropion: inhibitor 500 μM
# 11β-HSD1 = 11β-HSD1 ref 44; cited from earlier work
# [2] = system: placental carbonyl-reducing enzymes (human placental microsomes); assay: Type of inhibition and Ki of 18β-GA on bupropion reduction; type: biochemical; settings: Lineweaver-Burk plot: apparent Km increased, Vmax not affected
# [3] = Kinetics of bupropion reduction by human placental microsomes; type: in vitro ADME; settings: Mean±S.D. of HPM 1-6
compound,measurement,setting,value
CCC1(CC)C(=O)NC(=O)NC1=O [barbital],effect on formation of threo- and erythrohydrobupropion,[1],did not inhibit
Cc1cn[nH]c1 [4-methylpyrazole],effect on formation of threo- and erythrohydrobupropion,[1],did not inhibit
O=c1oc2ccccc2c(O)c1Cc1c(O)c2ccccc2oc1=O [dicumarol],effect on formation of threo- and erythrohydrobupropion,[1],did not inhibit; also recorded: did not affect
O=C(O)c1ccccc1Nc1cccc(C(F)(F)F)c1 [flufenamic acid],inhibition of formation of threo- and erythrohydrobupropion,[1]; inhibitor 4 μM,50%
"CC1(C)[C@@H](O)CC[C@]2(C)[C@H]3C(=O)C=C4[C@@H]5C[C@@](C)(C(=O)O)CC[C@]5(C)CC[C@@]4(C)[C@]3(C)CC[C@@H]12 [18β-GA, 18β-glycyrrhetinic acid]",IC50,11β-HSD1,[…]
same,inhibition of formation of threo- and erythrohydrobupropion,[1]; inhibitor 0.1 μM,80%
same,type of inhibition of bupropion reduction,[2],competitive
"CC(NC(C)(C)C)C(=O)c1cccc(Cl)c1 (stereo not shown) [bupropion, Bupropion hydrochloride]","Vmax, erythrohydrobupropion formation",[3],3.1±1.2 picomoles per minute per milligram of protein
same,"Vmax, threohydrobupropion formation",[3],18.6±6.1 picomoles per minute per milligram of protein
CC1=CC(=O)c2ccccc2C1=O [menadione],inhibition of formation of threo- and erythrohydrobupropion,[1]; inhibitor 100 μM,70%
